Literature values as cited in US11234935B2, “Method of inducing satiety” (PERORA GMBH, priority 2015, dated 2022).

Conditions: rat feeding study; independent from intake

## CCCCCCCCCCCCCCCCCC(=O)OCC(COC(=O)CCCCCCCCCCCCCCCCC)OC(=O)CCCCCCCCCCCCCCCCC [tristearin]
  true digestibility of stearic acid from tristearin: 0.15 g/g
